PMC11749787, “Natural flavonoid glycosides Chrysosplenosides I & A rejuvenate intestinal stem cell aging via activation of PPARγ signaling” (Life Medicine, 2024)

Molecular target: T1, PPARγ (peroxisome proliferator-activated receptor-gamma) (Homo sapiens, UniProt P37231)
T1 construct: gene PPARG; human PPARγ protein with a His tag (HY-P7999, MCE)
T1 sequence (P37231 1-505): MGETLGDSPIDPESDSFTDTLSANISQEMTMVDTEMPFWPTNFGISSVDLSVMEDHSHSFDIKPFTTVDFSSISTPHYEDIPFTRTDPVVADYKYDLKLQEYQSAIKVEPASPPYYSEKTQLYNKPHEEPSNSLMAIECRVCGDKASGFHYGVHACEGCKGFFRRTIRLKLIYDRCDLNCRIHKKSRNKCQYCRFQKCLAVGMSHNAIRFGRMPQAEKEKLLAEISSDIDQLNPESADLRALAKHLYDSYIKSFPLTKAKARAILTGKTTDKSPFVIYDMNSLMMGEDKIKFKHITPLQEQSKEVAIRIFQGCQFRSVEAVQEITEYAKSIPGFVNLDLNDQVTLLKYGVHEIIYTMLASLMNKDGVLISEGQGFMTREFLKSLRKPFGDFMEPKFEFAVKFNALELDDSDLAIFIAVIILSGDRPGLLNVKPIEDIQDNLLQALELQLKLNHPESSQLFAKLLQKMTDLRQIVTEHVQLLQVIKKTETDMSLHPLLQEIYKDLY
Experiment: bio-layer interferometry (Octet K2, NTA biosensor, immobilized His-tagged PPARγ)
Assay type: binding

Compound	Kd [µM]
Chrysosplenoside A [CA2]	32.4
COc1cc(O[C@@H]2O[C@H](CO)[C@@H](O)[C@H](O)[C@H]2O)c(-c2oc3cc(OC)c(OC)c(O)c3c(=O)c2OC)cc1O [CA1, Chrysosplenoside I]	75.3
